# Data taken from patent publication US6514519B1, “Edelfosin for the treatment of brain tumors” (Med-Mark Pharma GmbH, priority 1998, dated 2003).
# Where “and” joins values, the source holds several entries; their conditions need not be identical. Identical values can stand only once. Entries after “also recorded” stand apart in the source; their conditions may differ.
# What was measured:
# [1] = test system: human leukemic cells; conditions: cited from earlier work
# [2] = test system: brain tumors; assay: clinical phase II study with edelfosine: result of therapy and survival time; format: in vivo, humans; conditions: for Result of therapy (clin.): assessed on clinical symptoms (clin.)
# Procedure: The patients which are listed below in Table 1, with their status before and after treatment, were treated with edelfosine in the phase II study. It is important to emphasize in this connection that virtually all the patients have previously been treated or were from the outset untreatable (inoperable tumors). All the patients were treated with an average of 300 mg of edelfosine/day (range of variation between 50 and 600 mg). […] The carrier medium/active ingredient mixture is drunk in different dose levels/portion, which differed from patient to patient, distributed over the day. Administration is accordingly oral; the treatment is entirely on an outpatient basis, unless the clinical picture makes admission to hospital unavoidable.
# The number and duration of previous treatments before the start of therapy with a medicine are crucial for assessing the therapeutic efficacy=survival time and quality of survival; the survival time is in such cases always measured from the time at which the therapy with a medicine is started. The time which has elapsed from diagnosis until the start of treatment initially plays no direct part in this. However, it must be taken into account when the survival time of a last resort therapy (as edelfosine in this case) is compared with that of therapies which are usually started immediately after diagnosis (this is the case for chemotherapy and radiation studies).
# For virtually all the patients, a tumor which continued to grow after all the therapies used led to the edelfosine therapy, i.e. the tumor was progressive (cf. Table 1, column “Tumor activity”). The specification of “clinical” progression means in this connection that the tumor was progressive on the basis of deteriorating clinical symptoms (for example increase in headaches, congestion in the head, dizziness, tendency to fall, neurological symptoms in general), but no objective study (for example CT) was available for comparison.
# The pharmacodynamic effect, i.e. the effect of a medicine directly on the tumor, is normally measured 2 months after starting a therapy. This pharmacodynamic effect is defined differently depending on which class the substance belongs to (that is to say cytostatic, hormone product, immunomodulator etc.). […] The aim of therapy is accordingly a cessation of tumor growth (no change).
# The survival time is measured from the start of therapy with a medicine. The state of the art survival time data reported in the literature for the treatment of brain tumors are usually based on either adjuvant treatment of patients, that is to say directly after surgical removal of a tumor, or else on treatment immediately after making the diagnosis.
# [3] = adverse drug reactions (ADR) investigated during phase II studies; format: in vivo, humans
# Excerpt: During phase II studies, in accordance with requirements the adverse drug reactions (ADR) were also investigated. The result is shown in Table 2: The grading of the symptoms as transferred to the case report forms took place in accordance with the internationally used WHO classification. The assessment “yes” means that a symptom is caused by the medicine.
# [4] = test system: healthy cells; conditions: healthy vs degenerate cells; cited from earlier work
# [5] = patients with Karnofsky index <70% (N=16)
# [6] = ADR caused by edelfosine, number of 150 courses
# [7] = ADR caused by edelfosine, number of 159 courses
# [8] = ADR not caused by edelfosine, number of 149 courses
# [9] = ADR not caused by edelfosine, number of 150 courses
# [10] = ADR not caused by edelfosine, number of 159 courses
# [11] = ADR possibly caused by edelfosine, number of 150 courses
# [12] = ADR possibly caused by edelfosine, number of 159 courses
# [13] = no symptom reported, number of 149 courses
# [14] = no symptom reported, number of 150 courses
structure (smiles),measurement,setting,value
"CCCCCCCCCCCCCCCCCCOC[C@H](COP(=O)([O-])OCC[N+](C)(C)C)OC (racemic) [edelfosine, 1-octadecyl-2-methyl-sn-glycero-3-phosphocholine]",apoptosis,[1],reinduction of apoptosis
same,Result of therapy,[2]; Anaplastic oligodendroglioma,No further progression
same,Result of therapy,[2]; Astrocytoma II,No further progression
same,Result of therapy,[2]; Astrocytoma II/III,No further progression
same,Survival time,[2]; Astrocytoma II/III,412 days
same,Result of therapy (clin.),[2]; Astrocytoma II,No further progression
same,Result of therapy,[2]; Ependymoblastoma,Progression
same,Survival time,[2]; Ependymoblastoma,196 days
same,Result of therapy,[2]; Glioblastoma (Ø histol.),Progression
same,Result of therapy (clin.),[2]; Glioblastoma (Ø histol.),No further progression
same,Result of therapy,[2]; Glioblastoma IV,Progression
same,Survival time,[2]; Glioblastoma IV,143 days and 266 days
same,Result of therapy,[2]; Glioblastoma IV + Gliosarcoma,No further progression
same,Survival time,[2]; Glioblastoma IV + Gliosarcoma,203 days
same,Result of therapy (clin.),[2]; Glioblastoma IV,No further progression
same,Result of therapy (clin.),[2]; Glioblastoma multiforme,No further progression
same,survival of Pat. No. 247,"[2]; Glioblastoma, many years after completion of therapy",survived until the 8th year
same,Result of therapy,[2]; Gliosarcoma,No further progression
same,Survival time,[2]; Gliosarcoma,110 days
same,Survival time,[2]; Oligoastrocytoma II,270 days
same,Result of therapy (clin.),[2]; Oligoastrocytoma II,No further progression
same,Result of therapy,[2]; Oligoastrocytoma IV,No further progression
same,Survival time,[2]; Oligoastrocytoma IV,1602 days
same,Result of therapy,[2]; Oligodendroglioma III,No further progression
same,Survival time,[2]; Oligodendroglioma III,573 days
same,Result of therapy,[2]; Oligodendroglioma III/IV,No further progression
same,Survival time,[2]; Oligodendroglioma III/IV,2141 days
same,Result of therapy,[2]; Oligodendroglioma IV,No further progression
same,Survival time,[2]; Oligodendroglioma IV,572 days
same,patients with clinical stabilization/improvement although tumor progressive according to imaging,[2]; after 2 months,2%
same,treated patients with tumor still progressive,[2]; after 2 months,about 24%
same,treated patients with stabilization on the basis of clinical symptoms (cNC=clinical no change),"[2]; after 2 months of therapy, no objective study",approx. 14%
same,treated patients with cessation of tumor growth (NC=no change),[2]; imaging study after 2 months of therapy,about 56%
same,maximum gain in survival time,[2]; patients with Karnofsky index <70%,> 20 months
same,average survival time,[2]; [5],about 260 days
same,range of variation of survival time,[2]; [5],90 to 619 days
same,"Appetite, Grade 1 yes",[3]; [6],4
same,"Appetite, Grade 2 yes",[3]; [6],1
same,"Appetite, Grade 3 yes",[3]; [6],2
same,"Constipation, Grade 1 yes",[3]; [6],3
same,"Diarrhea, Grade 1 yes",[3]; [6],5
same,"Diarrhea, Grade 2 yes",[3]; [6],1
same,"Nausea/vomiting, Grade 1 yes",[3]; [7],12
same,"Nausea/vomiting, Grade 2 yes",[3]; [7],2
same,"CNS toxicity, Grade 1 no","[3]; ADR not caused by edelfosine, number of 135 courses",1
same,"Skin changes, Grade 4 no","[3]; ADR not caused by edelfosine, number of 148 courses",3
same,"Alopecia, Grade 1 no",[3]; [8],3
same,"Alopecia, Grade 2 no",[3]; [8],1
same,"Alopecia, Grade 3 no",[3]; [8],3
same,"Alopecia, Grade 4 no",[3]; [8],16
same,"Pain, Grade 1 no",[3]; [8],7
same,"Pain, Grade 2 no",[3]; [8],5
same,"Pain, Grade 3 no",[3]; [8],3
same,"Periph. neurop., Grade 1 no",[3]; [8],18
same,"Appetite, Grade 1 no",[3]; [9],4
same,"Appetite, Grade 2 no",[3]; [9],1
same,"Appetite, Grade 3 no",[3]; [9],4
same,"Appetite, Grade 4 no",[3]; [9],1
same,"Arrhythmia, Grade 1 no",[3]; [9],5
same,"Constipation, Grade 1 no",[3]; [9],1
same,"Diarrhea, Grade 2 no",[3]; [9],1
same,"Dyspnea, Grade 1 no",[3]; [9],4
same,"Dyspnea, Grade 2 no",[3]; [9],3
same,"Dyspnea, Grade 3 no",[3]; [9],1
same,"Dyspnea, Grade 4 no",[3]; [9],1
same,"Fever, Grade 1 no",[3]; [9],1
same,"Fever, Grade 2 no",[3]; [9],7
same,"Hemorrhages, Grade 1 no",[3]; [9],2
same,"Infection, Grade 1 no",[3]; [9],3
same,"Infection, Grade 2 no",[3]; [9],1
same,"Nausea/vomiting, Grade 1 no",[3]; [10],1
same,"Nausea/vomiting, Grade 2 no",[3]; [10],8
same,"Nausea/vomiting, Grade 3 no",[3]; [10],2
same,"CNS toxicity, Grade 1 ?","[3]; ADR possibly caused by edelfosine, number of 135 courses",1
same,"Alopecia, Grade 1 ?","[3]; ADR possibly caused by edelfosine, number of 149 courses",1
same,"Appetite, Grade 1 ?",[3]; [11],5
same,"Appetite, Grade 2 ?",[3]; [11],2
same,"Appetite, Grade 3 ?",[3]; [11],2
same,"Constipation, Grade 1 ?",[3]; [11],3
same,"Diarrhea, Grade 1 ?",[3]; [11],1
same,"Nausea/vomiting, Grade 1 ?",[3]; [12],5
same,"Nausea/vomiting, Grade 2 ?",[3]; [12],6
same,cumulative toxicity,[3]; after several years of uninterrupted therapy,no cumulative toxicity
same,reversibility of observed ADR symptoms,[3]; edelfosine therapy,reversible within a very short time (hours)
same,"CNS toxicity, Grade 0","[3]; no symptom reported, number of 135 courses",133
same,"Skin changes, Grade 0","[3]; no symptom reported, number of 148 courses",145
same,"Alopecia, Grade 0",[3]; [13],125
same,"Hematuria, Grade 0",[3]; [13],149
same,"Pain, Grade 0",[3]; [13],133
same,"Periph. neurop., Grade 0",[3]; [13],131
same,"Stomatitis, Grade 0",[3]; [13],149
same,"Appetite, Grade 0",[3]; [14],123
same,"Arrhythmia, Grade 0",[3]; [14],145
same,"Constipation, Grade 0",[3]; [14],143
same,"Diarrhea, Grade 0",[3]; [14],142
same,"Dyspnea, Grade 0",[3]; [14],141
same,"Fever, Grade 0",[3]; [14],142
same,"Heart failure, Grade 0",[3]; [14],150
same,"Hemorrhages, Grade 0",[3]; [14],148
same,"Infection, Grade 0",[3]; [14],146
same,"Allergy, Grade 0","[3]; no symptom reported, number of 151 courses",151
same,"Nausea/vomiting, Grade 0","[3]; no symptom reported, number of 159 courses",121
same,"esophagoscopy, gastroscopy findings",[3]; patients with nausea/vomiting (gastric pressure) during edelfosine therapy,no pathological findings at all
same,adverse drug reactions of Pat. No. 542,"[3]; therapy of about 6 years, total dose of about 640 g",negligible adverse drug reactions; also recorded: no ADRs at all
same,fate in healthy cells after uptake,[4],degraded in healthy cells
